Measured values: patent US7008613B2, “Quaternary ammonium compounds” (Les Laboratoires Servier, priority 1999, dated 2006)

Assay: Tissue distribution study by measurement of radioactivity across whole-body sections
Assay type: in vivo, male Sprague-Dawley rats
Conditions: for tissue distribution of radioactivity: target organs/tissues: labelled molecule, rat whole-body sections; for radioactivity bound by the kidney (elimination organ): first minutes following the injection
Experimental: Pharmacokinetic Study: Tissue Distribution Study
This study was carried out with molecules labelled with ^14C. The tissue distribution study was carried out by direct measurement of the radioactivity across whole-body sections in accordance with the following method: male Sprague-Dawley rats were administered intravenously or orally with a dose of the labelled molecule. Then, at times ranging from 5 minutes to 24 hours after the administration, the animals were sacrificed by ether inhalation and frozen in liquid nitrogen.
Sections were then prepared using a cryomicrotome and, after desiccation, the distribution of radioactivity was measured using an image analyser.

Structure (SMILES)	tissue distribution of radioactivity: target organs/tissues (after injection)	radioactivity bound by the kidney (elimination organ)	affinity for cartilage (administration of the labelled molecule by the oral route)	time of maximum binding to cartilage (after injection)	affinity of cartilage versus surrounding tissues (after injection of labelled molecule)
N[C@H]1C(O)O[C@H](CO)[C@@H](O)[C@@H]1O (some centres unmarked) [glucosamine, reference compound]	the liver is the main target organ	–	–	–	–
O=C(C[n+]1ccccc1)N[C@H]1C(O)O[C@H](CO)[C@@H](O)[C@@H]1O.[Cl-] (stereo partly drawn) [Example 5, 2-(Pyridinioacetamido)-2-deoxy-α,β-D-glucopyranose chloride]	cartilage, and to a lesser degree skin, are the only targets	binds significant amounts of radioactivity	–	–	–
CN1C(C(=O)NCCC[N+](C)(C)C)=C(O)c2ccccc2S1(=O)=O.[I-] [Example 6, {3-[(4-Hydroxy-2-methyl-1,1-dioxide-2H-1,2-benzothiazin-3-yl)-carboxamido]propyl}trimethylammonium iodide]	–	–	very high affinity for cartilage	5 min	cartilage exhibits a far greater affinity than the surrounding tissues
C[N+](C)(C)CC(=O)N[C@H]1C(O)O[C@H](CO)[C@@H](O)[C@@H]1O.[Cl-] (stereo partly drawn) [Example 4, 2-(N,N,N-trimethylammonioacetamido)-2-deoxy-α,β-D-glucopyranose chloride]	cartilage, and to a lesser degree skin, are the only targets	binds significant amounts of radioactivity	–	–	–
